Experimental data taken from ChEMBL document CHEMBL1909046, “DrugMatrix in vitro pharmacology data”.
Where a SMILES comes first, the peptide text is derived from it. Bridges are numbered along the chain shown (N, C = ends). [ ]: non-standard residue; d: D form. The star is where a group is joined. Threoninol(2S,3R) = C[C@@H](O)[C@H](CO)N*

Key:
[1] = target: T1, Amine oxidase [flavin-containing] A (Homo sapiens, UniProt P21397); assay: DRUGMATRIX: Monoamine Oxidase MAO-A enzyme inhibition (substrate: Kynuramine); parameters: species or system BTI-TN-5B1-4; conditions: Not Active = under 50% inhibition at 10 µM
T1 sequence (P21397 whole entry): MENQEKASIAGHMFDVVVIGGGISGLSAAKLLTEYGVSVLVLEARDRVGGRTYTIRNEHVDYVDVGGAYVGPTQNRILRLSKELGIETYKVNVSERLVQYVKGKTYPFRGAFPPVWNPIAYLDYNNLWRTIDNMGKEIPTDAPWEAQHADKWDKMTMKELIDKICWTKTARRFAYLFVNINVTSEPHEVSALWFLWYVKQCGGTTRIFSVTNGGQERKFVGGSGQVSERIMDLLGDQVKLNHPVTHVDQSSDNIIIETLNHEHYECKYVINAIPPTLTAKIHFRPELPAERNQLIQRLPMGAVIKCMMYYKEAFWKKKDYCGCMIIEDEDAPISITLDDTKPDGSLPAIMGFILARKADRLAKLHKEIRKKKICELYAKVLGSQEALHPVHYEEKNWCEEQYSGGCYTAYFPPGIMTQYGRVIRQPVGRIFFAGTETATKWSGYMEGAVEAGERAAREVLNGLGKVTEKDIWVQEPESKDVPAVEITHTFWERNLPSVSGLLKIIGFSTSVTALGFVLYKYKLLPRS

[2] = DRUGMATRIX: Sigma2 radioligand binding (ligand: [3H] Ifenprodil); assay type: cell membranes, Rattus norvegicus, Wistar, Brain, Membrane; conditions: Not Active = under 50% inhibition at 10 µM
[3] = target: 5-hydroxytryptamine receptor 1B (Rattus norvegicus, UniProt P28564); assay type: cell membranes, Wistar, Cerebral cortex, Membrane; also: in other assays of this panel Not Active means under 50% inhibition at 10 µM
[4] = DRUGMATRIX: Phosphodiesterase PDE4 enzyme inhibition (substrate: [3H]cAMP + cAMP); conditions: u-937; Not Active = under 50% inhibition at 10 µM
[5] = target: T2, 5-hydroxytryptamine receptor 1A (Rattus norvegicus, UniProt P19327); assay type: cell membranes, Membrane; conditions: cho-k1; also: in other assays of this panel Not Active means under 50% inhibition at 10 µM
T2 sequence (P19327 whole entry): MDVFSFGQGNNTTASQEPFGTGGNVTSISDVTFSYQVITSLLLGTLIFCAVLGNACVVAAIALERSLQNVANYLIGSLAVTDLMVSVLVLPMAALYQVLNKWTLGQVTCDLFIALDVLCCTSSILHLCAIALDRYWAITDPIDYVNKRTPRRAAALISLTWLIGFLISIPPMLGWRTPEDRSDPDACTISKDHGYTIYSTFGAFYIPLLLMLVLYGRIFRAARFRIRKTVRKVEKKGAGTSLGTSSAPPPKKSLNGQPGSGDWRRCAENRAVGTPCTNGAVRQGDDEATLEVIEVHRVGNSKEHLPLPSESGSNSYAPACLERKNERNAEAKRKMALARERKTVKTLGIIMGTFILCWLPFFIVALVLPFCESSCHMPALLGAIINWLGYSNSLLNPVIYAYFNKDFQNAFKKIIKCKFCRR

[6] = target: T3, Receptor-type tyrosine-protein phosphatase C (Homo sapiens, UniProt P08575); parameters: species or system Escherichia coli;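 also: inhibition of CD45 enzyme activity measured using DiFMUP as substrate; in other assays of this panel Not Active means under 50% inhibition at 10 µM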
T3 sequence (P08575 whole entry): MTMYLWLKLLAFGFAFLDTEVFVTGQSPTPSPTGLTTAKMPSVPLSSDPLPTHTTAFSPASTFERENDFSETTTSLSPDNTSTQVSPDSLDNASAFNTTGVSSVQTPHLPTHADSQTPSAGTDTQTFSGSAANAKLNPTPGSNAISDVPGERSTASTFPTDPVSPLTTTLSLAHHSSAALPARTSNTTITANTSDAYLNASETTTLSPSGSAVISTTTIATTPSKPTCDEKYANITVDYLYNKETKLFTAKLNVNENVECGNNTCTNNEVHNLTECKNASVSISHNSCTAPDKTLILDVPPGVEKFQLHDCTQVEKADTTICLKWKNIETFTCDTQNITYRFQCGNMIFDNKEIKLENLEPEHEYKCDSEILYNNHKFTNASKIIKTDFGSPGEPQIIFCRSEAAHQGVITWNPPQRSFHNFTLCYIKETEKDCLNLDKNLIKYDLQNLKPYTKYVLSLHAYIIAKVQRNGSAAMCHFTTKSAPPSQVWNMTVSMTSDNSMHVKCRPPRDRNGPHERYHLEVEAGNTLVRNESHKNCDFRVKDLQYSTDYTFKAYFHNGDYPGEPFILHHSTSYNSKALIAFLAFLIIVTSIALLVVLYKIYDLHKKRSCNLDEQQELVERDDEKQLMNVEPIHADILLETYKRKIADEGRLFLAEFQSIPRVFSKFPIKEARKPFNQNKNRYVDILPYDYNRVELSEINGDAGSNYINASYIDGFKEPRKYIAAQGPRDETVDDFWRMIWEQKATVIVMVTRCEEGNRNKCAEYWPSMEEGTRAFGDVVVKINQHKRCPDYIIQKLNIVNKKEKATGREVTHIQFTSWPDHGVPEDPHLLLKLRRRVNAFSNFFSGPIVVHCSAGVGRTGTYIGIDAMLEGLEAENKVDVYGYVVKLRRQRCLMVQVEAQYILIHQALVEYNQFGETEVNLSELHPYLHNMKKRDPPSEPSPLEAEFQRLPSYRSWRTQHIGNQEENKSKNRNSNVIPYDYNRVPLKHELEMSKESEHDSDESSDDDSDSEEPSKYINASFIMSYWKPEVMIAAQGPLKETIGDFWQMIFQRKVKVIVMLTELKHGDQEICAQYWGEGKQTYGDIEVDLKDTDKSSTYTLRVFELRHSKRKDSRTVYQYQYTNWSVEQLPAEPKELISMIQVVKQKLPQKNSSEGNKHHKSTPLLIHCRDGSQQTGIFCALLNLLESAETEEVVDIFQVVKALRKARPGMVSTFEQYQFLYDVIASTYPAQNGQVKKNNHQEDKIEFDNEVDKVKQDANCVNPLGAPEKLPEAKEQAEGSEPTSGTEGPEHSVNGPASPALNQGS

5-hydroxytryptamine receptor 1B, sequence (P28564 whole entry): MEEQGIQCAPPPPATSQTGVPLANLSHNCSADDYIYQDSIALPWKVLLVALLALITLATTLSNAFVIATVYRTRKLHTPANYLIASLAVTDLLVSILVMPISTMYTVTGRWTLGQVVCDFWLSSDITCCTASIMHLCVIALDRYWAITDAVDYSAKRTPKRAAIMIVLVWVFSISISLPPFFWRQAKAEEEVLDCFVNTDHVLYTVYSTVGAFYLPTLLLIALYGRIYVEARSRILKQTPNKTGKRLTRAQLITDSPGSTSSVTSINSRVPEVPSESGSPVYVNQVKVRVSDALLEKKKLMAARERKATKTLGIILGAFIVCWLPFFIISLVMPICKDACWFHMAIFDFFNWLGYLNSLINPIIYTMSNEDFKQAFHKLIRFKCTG

Structure (SMILES) | IC50 ([1]; bti-tn-5b1-4) | IC50 [2] | Ki [2] | IC50 [3] | IC50 [4] | Ki [4] | IC50 [5] | IC50 [6] | IC50 ([1]; read-out: IC50) | Ki ([1]; bti-tn-5b1-4) | Ki [3] | Ki [5] | Ki [6]
CC(=O)Nc1cccc(O)c1 [METACETAMOL] | Not Active | Not Active | Not Active | Not Active | Not Active | Not Active | Not Active | Not Active |  |  |  |  | 
CCn1cc(C(=O)O)c(=O)c2cc(F)c(N3CCN(C)CC3)cc21 [PEFLOXACIN] | Not Active | Not Active | Not Active | Not Active | Not Active | Not Active | Not Active | Not Active |  |  |  |  | 
COc1ccc2c(c1)c(CC(=O)O)c(C)n2C(=O)c1ccc(Cl)cc1 [INDOMETHACIN] | Not Active | Not Active | Not Active | Not Active | Not Active | Not Active | Not Active | Not Active |  |  |  |  | 
C[C@H]1O[C@@H](O[C@H]2[C@@H](O)C[C@H](O[C@H]3[C@@H](O)C[C@H](O[C@H]4CC[C@@]5(C)[C@H](CC[C@@H]6[C@@H]5CC[C@]5(C)[C@@H](C7=CC(=O)OC7)CC[C@]65O)C4)O[C@@H]3C)O[C@@H]2C)C[C@H](O)[C@@H]1O [DIGITOXIN] | Not Active | Not Active | Not Active | Not Active | Not Active | Not Active | Not Active | Not Active |  |  |  |  | 
S=C=Nc1cccc2ccccc12 [1-NAPHTHYLISOTHIOCYANATE] |  | Not Active | Not Active | Not Active | Not Active | Not Active | Not Active | Not Active | 22.4 µM |  |  |  | 
C[C@]12CC[C@@H]3c4ccc(O)cc4CC[C@H]3[C@@H]1CC[C@@H]2O [ESTRADIOL] | Not Active | Not Active | Not Active | Not Active | Not Active | Not Active | Not Active | Not Active |  |  |  |  | 
CCOC(=O)C1=C(C)NC(C)=C(C(=O)OC)C1c1cccc([N+](=O)[O-])c1 (stereo not drawn) [NITRENDIPINE] | Not Active | Not Active | Not Active | Not Active | Not Active | Not Active | Not Active | Not Active |  |  |  |  | 
CC1=C(C(=O)O)N2C(=O)[C@@H](NC(=O)[C@H](N)c3ccccc3)[C@H]2SC1 [CEPHALEXIN ANHYDROUS] | Not Active | Not Active | Not Active | Not Active | Not Active | Not Active | Not Active | Not Active |  |  |  |  | 
CN(C)/N=N/c1[nH]cnc1C(N)=O [DACARBAZINE] | Not Active | Not Active | Not Active | Not Active | Not Active | Not Active | Not Active | Not Active |  |  |  |  | 
COc1ccc2c(c1)[C@]13CCCC[C@@H]1[C@H](C2)N(C)CC3 [DEXTROMETHORPHAN] | Not Active | Not Active | Not Active | Not Active | Not Active | Not Active | Not Active | Not Active |  |  |  |  | 
COc1ccccc1C(=O)N1CCC(Cc2ccccc2)CC1 | Not Active | Not Active | Not Active | Not Active | Not Active | Not Active | Not Active | Not Active |  |  |  |  | 
C=C1CC[C@H](O)C/C1=C/C=C1\CCC[C@]2(C)[C@@H]([C@H](C)CCCC(C)C)CC[C@@H]12 [CHOLECALCIFEROL] | Not Active | Not Active | Not Active | Not Active | Not Active | Not Active | Not Active | Not Active |  |  |  |  | 
COc1cc2c(c3oc(=O)c4c(c13)CCC4=O)[C@@H]1C=CO[C@@H]1O2 [AFLATOXIN] | Not Active | Not Active | Not Active | Not Active | Not Active | Not Active | Not Active | Not Active |  | Not Active | Not Active | Not Active | Not Active
CC(C)Cc1ccc(C(C)C(=O)O)cc1 (stereo not drawn) [IBUPROFEN] | Not Active | Not Active | Not Active | Not Active | Not Active | Not Active | Not Active | Not Active |  |  |  |  | 
CC(C)(C(=O)c1cccnc1)c1cccnc1 [METYRAPONE] | Not Active | Not Active | Not Active | Not Active | Not Active | Not Active | Not Active | Not Active |  |  |  |  | 
Cc1ncc([N+](=O)[O-])n1CCO [METRONIDAZOLE] | Not Active | Not Active | Not Active | Not Active | Not Active | Not Active | Not Active | Not Active |  |  |  |  | 
C[C@@H](O)[C@H](CO)NC(=O)[C@@H]1CSSC[C@H](NC(=O)[C@H](N)Cc2ccccc2)C(=O)N[C@@H](Cc2ccccc2)C(=O)N[C@H](Cc2c[nH]c3ccccc23)C(=O)N[C@@H](CCCCN)C(=O)N[C@@H]([C@@H](C)O)C(=O)N1 (H-[dF]CF[dW]KTC-{Threoninol(2S,3R)}; disulfide 2-7) | Not Active | Not Active | Not Active | Not Active | Not Active | Not Active | Not Active | Not Active |  |  |  |  | 
COc1ccc2[nH]c([S+]([O-])Cc3ncc(C)c(OC)c3C)nc2c1 (stereo not drawn) [OMEPRAZOLE] | Not Active | Not Active | Not Active | Not Active | Not Active | Not Active | Not Active | Not Active |  |  |  |  | 
